The values below come from US10828315B2 (Madrigal Pharmaceuticals, Inc., priority 2013, dated 2020).

By IC50 is commonly meant the concentration that inhibits the measured activity by half. Read a low IC50 as greater potency.

One data set has as its system HER2. The data set is described as follows: HER2 degradation assay with BT-474 cell line (Example 12, FACS).
Settings: not given
The format is cell-based, human. The text has this: HER2 has emerged as a key target for anticancer drugs due to its intrinsic involvement in the phosphatidylinositol-3-kinase-Akt/protein kinase B (PI3K-Akt) and the mitogen-activated protein kinase (MAPK) pathways, both of which suppress apoptosis and promote tumor cell survival, gene transcription, angiogenesis, cellular proliferation, migration, mitosis, and differentiation. The degradation of HER2 is a measure of efficacy of anticancer therapeutics that target Hsp90. Accordingly, the SDC-TRAP molecules of the invention that comprise a binding moiety that binds Hsp90 were tested in the following HER2 degradation assay.
BT-474 cells (human breast cancer cell line ATCC HTB-20) were obtained from ATCC and seeded into 12-well tissue culture plates at 0.2×10^6/1.8 mL/well. […] Each test compound was titrated in 4-fold dilutions from 5 μM to 78 nM with DMSO and 200 μL of the titration was added to each well of the cell plate. The DMSO final concentration was 0.2%. Cells were incubated overnight at 37° C. in 5% CO2.
Media was decanted from the plate, cells were washed 1× in PBS. 400 μL trypsin (EDTA) per well was added, and the cells were incubated for 2 to 3 minutes. Cells were collected into FACS tubes containing 1 ml culture medium to neutralize the trypsin and were centrifuged for 5 minutes at 1200 rpm. Supernatant was decanted and the cells were resuspended in 5 μL FITC (anti HER2/nu)/200 μL staining buffer (1×PBS+1% FBS+0.05% Sodium Azide)/tube. Controls were 5 μL IgG isotype control and staining buffer only. Tubes were incubated for 30 minutes in the dark at room temperature. 1 mL staining buffer was added to each tube and the tubes were centrifuged for 6 minutes at 1200 rpm. The supernatant was decanted and 300 μL staining buffer was added to each tube, which was store at 4° C. fpr FACS (cytometer) analysis. The cytometer readout was normalized and the potency of each compound is evaluated with IC50 calculated with XLfit™ software.
As to `CCc1c2c(nc3ccc(OC(=O)N4CCN(c5ccc(-n6c(O)nnc6-c6cc(C(C)C)c(O)cc6O)cn5)CC4)cc13)-c1cc3c(c(=O)n1C2)COC(=O)[C@]3(O)CC` [SDC-TRAP-0090, (S)-4,11-diethyl-4-hydroxy-3,14-dioxo-3,4,12,14-tetrahydro-1H-pyrano[3′,4′:6,7]indolizino[1,2-b]quinolin-9-yl 4-(5-(3-(2,4-dihydroxy-5-isopropylphenyl)-5-hydroxy-4H-1,2,4-triazol-4-yl)pyridin-2-yl)piperazine-1-carboxylate], the midpoint of inhibition, the IC50, lay at 4600 nM.

As for `CCc1c2c(nc3ccc(O)cc13)-c1cc3c(c(=O)n1C2)COC(=O)[C@@]3(CC)OC(=O)N(C)CCCN1CCN(Cc2ccc(-n3c(O)nnc3-c3cc(C(C)C)c(O)cc3O)cc2)CC1` [SDC-TRAP-0084, (S)-4,11-diethyl-9-hydroxy-3,14-dioxo-3,4,12,14-tetrahydro-1H-pyrano[3′,4′:6,7]indolizino[1,2-b]quinolin-4-yl (3-(4-(4-(3-(2,4-dihydroxy-5-isopropylphenyl)-5-hydroxy-4H-1,2,4-triazol-4-yl)benzyl)piperazin-1-yl)propyl)(methyl)carbamate], the IC50 stood at 1130 nM.

Consider `CCc1c2c(nc3ccc(O)cc13)-c1cc3c(c(=O)n1C2)COC(=O)C3(CC)OC(=O)N1CCN(Cc2cc3cc(-n4c(O)nnc4-c4cc(C(C)C)c(O)cc4O)ccc3n2C)CC1` (stereo not shown) [SDC-TRAP-0075, 4,11-diethyl-9-hydroxy-3,14-dioxo-3,4,12,14-tetrahydro-1H-pyrano[3′,4′:6,7]indolizino[1,2-b]quinolin-4-yl 4-((5-(3-(2,4-dihydroxy-5-isopropylphenyl)-5-hydroxy-4H-1,2,4-triazol-4-yl)-1-methyl-1H-indol-2-yl)methyl)piperazine-1-carboxylate], for which the IC50 is 953 nM.

Test system in the next data set: not listed separately
The data set is described as follows: Mouse plasma stability protocol, up to 1 h (Examples 16-18). Particulars: % Remaining of parent after 1 h incubation in mouse plasma at 37° C. (10 μM).
Regarding `CCc1c2c(nc3ccc(OC(=O)N4CCC(S(=O)(=O)N5CCC(CCn6ccc7cc(-n8c(O)nnc8-c8cc(C(C)C)c(O)cc8O)ccc76)CC5)CC4)cc13)-c1cc3c(c(=O)n1C2)COC(=O)[C@]3(O)CC` [SDC-TRAP-0336, (S)-4,11-diethyl-4-hydroxy-3,14-dioxo-3,4,12,14-tetrahydro-1H-pyrano[3′,4′:6,7]indolizino[1,2-b]quinolin-9-yl 4-((4-(2-(5-(3-(2,4-dihydroxy-5-isopropylphenyl)-5-hydroxy-4H-1,2,4-triazol-4-yl)-1H-indol-1-yl)ethyl)piperidin-1-yl)sulfonyl)piperidine-1-carboxylate], the “% Remaining (1 h)” value was found to be 31.7%.

In the case of `CCc1c2c(nc3ccc(O)cc13)-c1cc3c(c(=O)n1C2)COC(=O)C3(CC)OC(=O)N1CCN(C(=O)C2CCN(c3ccc(-n4c(O)nnc4-c4cc(C(C)C)c(O)cc4O)cc3)CC2)CC1` (stereo not shown), the “% Remaining (1 h)” value came to 108%.

As to `CCNC(=O)c1nnc(-c2cc(C(C)C)c(O)cc2O)n1-c1ccc(S(=O)(=O)N2CCC(C(=O)N3CCN(C(=O)Oc4ccc5nc6c(c(CC)c5c4)Cn4c-6cc5c(c4=O)COC(=O)C5(O)CC)CC3)CC2)cc1` (stereo not shown) [SDC-TRAP-0383, 4,11-diethyl-4-hydroxy-3,14-dioxo-3,4,12,14-tetrahydro-1H-pyrano[3′,4′:6,7]indolizino[1,2-b]quinolin-9-yl 4-(1-((4-(3-(2,4-dihydroxy-5-isopropylphenyl)-5-(ethylcarbamoyl)-4H-1,2,4-triazol-4-yl)phenyl)sulfonyl)piperidine-4-carbonyl)piperazine-1-carboxylate], the “% Remaining (1 h)” value is 47.6%.

In the case of `CCNC(=O)c1nnc(-c2cc(C(C)C)c(O)cc2O)n1-c1ccc(C(=O)N2CCN(c3cc(C)c(OC(=O)Nc4cccc5c4C(=O)N(C4CCC(=O)NC4=O)C5=O)c(C)c3)CC2)cc1` (stereo not shown) [SDC-TRAP-0400, 4-(4-(4-(3-(2,4-dihydroxy-5-isopropylphenyl)-5-(ethylcarbamoyl)-4H-1,2,4-triazol-4-yl)benzoyl)piperazin-1-yl)-2,6-dimethylphenyl (2-(2,6-dioxopiperidin-3-yl)-1,3-dioxoisoindolin-4-yl)carbamate], the “% Remaining (1 h)” value is listed as 70.4%.

For the compound `CCc1c2c(nc3ccc(OC(=O)N4CCC(N(C)CCNC(=O)c5nnc(-c6cc(C(C)C)c(O)cc6O)n5-c5cccnc5)CC4)cc13)-c1cc3c(c(=O)n1C2)COC(=O)C3(O)CC` (stereo not shown) [SDC-TRAP-0358], the “% Remaining (1 h)” value came out at 41.0%.

For the compound `CCc1c2c(nc3ccc(O)cc13)-c1cc3c(c(=O)n1C2)COC(=O)[C@@]3(CC)OC(=O)CN1CCC(CCn2ccc3cc(-n4c(O)nnc4-c4cc(C(C)C)c(O)cc4O)ccc32)CC1` [SDC-TRAP-0107, (S)-4,11-diethyl-9-hydroxy-3,14-dioxo-3,4,12,14-tetrahydro-1H-pyrano[3′,4′:6,7]indolizino[1,2-b]quinolin-4-yl 2-(4-(2-(5-(3-(2,4-dihydroxy-5-isopropylphenyl)-5-hydroxy-4H-1,2,4-triazol-4-yl)-1H-indol-1-yl)ethyl)piperidin-1-yl)acetate], the “% Remaining (1 h)” value worked out at 111%.

As for `CCNC(=O)c1nnc(-c2cc(C(C)C)c(O)cc2O)n1-c1ccc2c(c1)CN(C(=O)Oc1ccc3nc4c(c(CC)c3c1)Cn1c-4cc3c(c1=O)COC(=O)C3(O)CC)C2` (stereo not shown) [SDC-TRAP-0392, 4,11-diethyl-4-hydroxy-3,14-dioxo-3,4,12,14-tetrahydro-1H-pyrano[3′,4′:6,7]indolizino[1,2-b]quinolin-9-yl 5-(3-(2,4-dihydroxy-5-isopropylphenyl)-5-(ethylcarbamoyl)-4H-1,2,4-triazol-4-yl)isoindoline-2-carboxylate], the “% Remaining (1 h)” value stood at 44.7%.

With `CCNC(=O)c1nnc(-c2cc(C(C)C)c(O)cc2O)n1-c1ccc2c(c1)CN(S(=O)(=O)C1CCN(C(=O)Oc3ccc4nc5c(c(CC)c4c3)Cn3c-5cc4c(c3=O)COC(=O)C4(O)CC)CC1)C2` (stereo not shown) [SDC-TRAP-0391, 4,11-diethyl-4-hydroxy-3,14-dioxo-3,4,12,14-tetrahydro-1H-pyrano[3′,4:6,7]indolizino[1,2-b]quinolin-9-yl 4-((5-(3-(2,4-dihydroxy-5-isopropylphenyl)-5-(ethylcarbamoyl)-4H-1,2,4-triazol-4-yl)isoindolin-2-yl)sulfonyl)piperidine-1-carboxylate], the “% Remaining (1 h)” value is recorded as 15.2%.

As to `CCNC(=O)c1nnc(-c2cc(C(C)C)c(O)cc2O)n1-c1ccc(CN2CCC(C(=O)N3CCC(C(=O)OC4(CC)C(=O)OCc5c4cc4n(c5=O)Cc5c-4nc4ccc(O)cc4c5CC)CC3)CC2)cc1` (stereo not shown) [SDC-TRAP-0076, 4,11-diethyl-9-hydroxy-3,14-dioxo-3,4,12,14-tetrahydro-1H-pyrano[3′,4′:6,7]indolizino[1,2-b]quinolin-4-yl 1-(1-(4-(3-(2,4-dihydroxy-5-isopropylphenyl)-5-(ethylcarbamoyl)-4H-1,2,4-triazol-4-yl)benzyl)piperidine-4-carbonyl)piperidine-4-carboxylate], the “% Remaining (1 h)” value was 96.0%.

Take `CCNC(=O)c1noc(-c2cc(C(C)C)c(O)cc2O)c1-c1ccc(CN2CCN(C(=O)Oc3ccc4nc5c(c(CC)c4c3)Cn3c-5cc4c(c3=O)COC(=O)C4(O)CC)CC2)cc1` (stereo not shown) [SDC-TRAP-0236, 4,11-diethyl-4-hydroxy-3,14-dioxo-3,4,12,14-tetrahydro-1H-pyrano[3′,4′:6,7]indolizino[1,2-b]quinolin-9-yl 4-(4-(5-(2,4-dihydroxy-5-isopropylphenyl)-3-(ethylcarbamoyl)isoxazol-4-yl)benzyl)piperazine-1-carboxylate]: the “% Remaining (1 h)” value was found to be 60.8%.

Turning to `CCNC(=O)c1nnc(-c2cc(C(C)C)c(O)cc2O)n1-c1ccc(S(=O)(=O)N2CCC(C(=O)N3CCN(C(=O)Oc4ccc5nc6c(c(CC)c5c4)Cn4c-6cc5c(c4=O)COC(=O)C5(O)CC)C(C)C3)CC2)cc1` (stereo not shown) [SDC-TRAP-0396, 4,11-diethyl-4-hydroxy-3,14-dioxo-3,4,12,14-tetrahydro-1H-pyrano[3′,4:6,7]indolizino[1,2-b]quinolin-9-yl 4-(1-((4-(3-(2,4-dihydroxy-5-isopropylphenyl)-5-(ethylcarbamoyl)-4H-1,2,4-triazol-4-yl)phenyl)sulfonyl)piperidine-4-carbonyl)-2-methylpiperazine-1-carboxylate], the “% Remaining (1 h)” value is 71.6%.

The same data set, now with this note: mouse plasma, 1 h, 37° C.
In the case of `CCNC(=O)c1nnc(-c2cc(C(C)C)c(O)cc2O)n1-c1ccc(OC2CCN(C(=O)C3CCCCN3C(=O)Oc3ccc4nc5c(c(CC)c4c3)Cn3c-5cc4c(c3=O)COC(=O)[C@]4(O)CC)CC2)cc1` (stereo partly drawn) [SDC-TRAP-0216, (S)-4,11-diethyl-4-hydroxy-3,14-dioxo-3,4,12,14-tetrahydro-1H-pyrano[3′,4′:6,7]indolizino[1,2-b]quinolin-9-yl 2-(4-(4-(3-(2,4-dihydroxy-5-isopropylphenyl)-5-(ethylcarbamoyl)-4H-1,2,4-triazol-4-yl)phenoxy)piperidine-1-carbonyl)piperidine-1-carboxylate], the “% Remaining (1 h, 37° C.)” value turned out to be 67.7%.

As for `CCNC(=O)c1nnc(-c2cc(C(C)C)c(O)cc2O)n1-c1ccc(CN2CCC(C(=O)N3CCC(C(=O)OC4(CC)C(=O)OCc5c4cc4n(c5=O)Cc5c-4nc4ccc(O)cc4c5CC)CC3)CC2)cc1` (stereo not shown) [SDC-TRAP-0076, 4,11-diethyl-9-hydroxy-3,14-dioxo-3,4,12,14-tetrahydro-1H-pyrano[3′,4′:6,7]indolizino[1,2-b]quinolin-4-yl 1-(1-(4-(3-(2,4-dihydroxy-5-isopropylphenyl)-5-(ethylcarbamoyl)-4H-1,2,4-triazol-4-yl)benzyl)piperidine-4-carbonyl)piperidine-4-carboxylate], the “% Remaining (1 h, 37° C.)” value turned out to be 96%.
